Our source for the inhibition values is PubChem BioAssay AID1347054 (Pharmacoinformatics Research Group Wien, 2019).

For orientation: inhibition means the change of the read-out against control, counted positive when it falls.

The assay concerns the target Broad substrate specificity ATP-binding cassette transporter ABCG2 (Homo sapiens) (UniProt Q9UNQ0). The experiment in a line: BCRP efflux transporter inhibitors, PLB985 cells, flow cytometry (AID 1347054). Conditions: mitoxantrone accumulation, at 10 µM, stronger effect = higher value. In general terms: A flow cytometer gives signals particle by particle.

Active and inactive are the calls of the source.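 Rule for the calls: active = clear block of the BCRP drug efflux pump at 10 µM versus solvent-only wells, p under 0.05; inactive = the rest.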

Broad substrate specificity ATP-binding cassette transporter ABCG2 (Homo sapiens), sequence (Q9UNQ0 whole entry, looked up): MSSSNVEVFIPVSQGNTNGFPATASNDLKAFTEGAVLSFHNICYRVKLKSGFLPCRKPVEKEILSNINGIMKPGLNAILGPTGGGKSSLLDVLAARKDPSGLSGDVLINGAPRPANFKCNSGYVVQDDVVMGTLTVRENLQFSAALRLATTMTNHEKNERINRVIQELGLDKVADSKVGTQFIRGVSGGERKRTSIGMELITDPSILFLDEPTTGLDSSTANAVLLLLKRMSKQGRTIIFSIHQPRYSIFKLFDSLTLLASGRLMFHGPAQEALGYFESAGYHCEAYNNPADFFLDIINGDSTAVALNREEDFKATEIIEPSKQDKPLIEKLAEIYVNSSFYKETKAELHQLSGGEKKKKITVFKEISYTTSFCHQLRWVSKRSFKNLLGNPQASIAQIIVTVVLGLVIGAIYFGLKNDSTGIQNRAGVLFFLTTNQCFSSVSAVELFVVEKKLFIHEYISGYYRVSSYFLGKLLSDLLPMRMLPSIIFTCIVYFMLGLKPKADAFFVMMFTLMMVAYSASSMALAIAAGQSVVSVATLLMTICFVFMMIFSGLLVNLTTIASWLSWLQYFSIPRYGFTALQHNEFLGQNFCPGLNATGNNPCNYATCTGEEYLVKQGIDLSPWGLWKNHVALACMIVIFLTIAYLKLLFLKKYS

Take `CN(C/C=C/C#CC(C)(C)C)Cc1cccc2ccccc12`: the inhibition is 9.86% (inactive).

Regarding `COc1cc(N)c(Cl)cc1C(=O)N[C@@H]1CCN(CCCOc2ccc(F)cc2)C[C@@H]1OC`, the inhibition was 83.8%.

Consider `COc1ccc2c(c1)C13CCCC[C@@H]1C(C2)N(C)CC3` (stereo partly specified), for which the inhibition was -6.11% (inactive).

For the molecule `CCCCN(CCCC)CCC(O)c1cc2c(Cl)cc(Cl)cc2c2cc(C(F)(F)F)ccc12` (stereo unspecified), the inhibition was -9.66% (inactive).

Take `C[C@]12CCC(=O)C=C1[C@@H]1C[C@@H]1[C@H]1[C@@H]3[C@@H]4C[C@@H]4[C@@]4(CCC(=O)O4)[C@@]3(C)CC[C@@H]12`: the inhibition was 14.4% (inactive).

`O=C(Nc1c(Cl)cncc1Cl)c1ccc(OC(F)F)c(OCC2CC2)c1`: the inhibition was 61.7%.

Turning to `COc1ccc(C(=O)Nc2ccccc2CCC2CCCCN2C)cc1` (stereo unspecified), the inhibition was 13.3% (inactive).

On to `CN(Cc1ccc(C(C)(C)C)cc1)Cc1cccc2ccccc12`, for which the inhibition is 10.8% (inactive).

Turning to `C=C1CC[C@H](O)C/C1=C/C=C1\CCC[C@]2(C)[C@@H]([C@H](C)CCCC(C)C)CC[C@@H]12`, the inhibition is 1.28% (inactive).

`CS(C)=O`: the inhibition was 0% (inactive).

Turning to `COc1cc(NS(C)(=O)=O)ccc1Nc1c2ccccc2nc2ccccc12`, the inhibition was 13.7% (inactive).
